How the values were obtained:
hTopo I = molecular target: T1, hTopo I (Homo sapiens, UniProt P11387); assay: hTopo I relaxation assay; assay type: biochemical; conditions: compound at 1 μM, pHOT1 plasmid, agarose gel
T1 construct: purchased TopoGEN
T1 sequence (P11387 1-765): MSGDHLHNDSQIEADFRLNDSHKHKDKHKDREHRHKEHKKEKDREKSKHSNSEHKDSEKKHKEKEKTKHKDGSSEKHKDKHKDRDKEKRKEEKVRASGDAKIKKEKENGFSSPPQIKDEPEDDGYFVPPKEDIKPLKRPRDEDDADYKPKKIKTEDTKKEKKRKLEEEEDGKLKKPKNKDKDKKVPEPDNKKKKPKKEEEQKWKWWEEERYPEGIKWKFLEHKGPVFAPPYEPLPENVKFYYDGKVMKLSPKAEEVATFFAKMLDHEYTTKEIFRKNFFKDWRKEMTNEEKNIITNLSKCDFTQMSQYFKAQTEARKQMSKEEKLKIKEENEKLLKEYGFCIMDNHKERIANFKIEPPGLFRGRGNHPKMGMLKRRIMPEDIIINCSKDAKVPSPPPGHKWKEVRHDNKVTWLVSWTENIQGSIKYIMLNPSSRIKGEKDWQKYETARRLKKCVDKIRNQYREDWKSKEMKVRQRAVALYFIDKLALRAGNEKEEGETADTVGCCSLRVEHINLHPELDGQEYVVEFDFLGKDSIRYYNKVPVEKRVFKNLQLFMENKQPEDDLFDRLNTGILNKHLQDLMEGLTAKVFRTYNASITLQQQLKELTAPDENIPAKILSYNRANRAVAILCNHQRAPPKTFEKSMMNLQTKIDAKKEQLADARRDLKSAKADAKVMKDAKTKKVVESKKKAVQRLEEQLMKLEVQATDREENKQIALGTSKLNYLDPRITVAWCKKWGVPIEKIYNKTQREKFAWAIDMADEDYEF
Procedure: Indeed, as shown in Figure 3a (lanes 3 and 4), a clear band of the uncut plasmid DNA at the bottom of the gel is present. The uncut plasmid pHOT1, used as marker, is present in Figure 3a, lane 1. On the contrary, in the control reaction (only vehicle, Figure 3a, lane 2), it is possible to observe the presence of multiple bands corresponding to the relaxed plasmid DNA, used as substrate.
hTopo I relaxation assays were performed as indicated in the manufacturer’s protocol (TopoGEN, Port Orange, FL, USA) with some revisions. hTopo I relaxation assays were performed in a final volume of 20 μL: 0.25 μg of supercoiled pHOT1 in TE buffer [TE: 10 mM Tris-HCl (pH 7.5), 1 mM EDTA] was added to a solution containing water, 1× assay buffer (10 mM Tris-HCl (pH 7.9), 1 mM EDTA, 0.5 mM NaCl, 0.1% bovine serum albumin, 0.1 mM spermidine and 5% glycerol) and the tested compounds. The mix was incubated for 15 min at 37 °C. Then, the reaction was initiated by addition of recombinant hTopo I (2 U), incubated at 37 °C for 1 h and terminated by the addition of 5× stop buffer (5% sarkosyl, 25% glycerol, 0.125% bromophenol blue). The aqueous phase was loaded onto a 1% agarose gel containing 1× TAE buffer (diluted from50× buffer containing 242 g Tris base, 57.1 mL glacial acetic acid and 100 mL of 0.5 M EDTA) without ethidium bromide (EB). […]

MCF-7 cells = assay: MTT assay, MCF-7 cell viability; assay type: cell-based; conditions: Homo sapiens, MCF7, 72 h, mean ± standard deviation
Procedure: MTT assays (Sigma Aldrich (St.Louis, MO, USA)) were employed to evaluate the in vitro anticancer activities of all the studied compounds, as previously described. The compounds were tested at different concentrations (0.1-1-10-25-50-100 μM) for 72 h. The IC50 values were calculated from the percent (%) of control using GraphPad Prism 9 (GraphPad Software, La Jolla, CA, USA).

[1] = molecular target: T2, labeled rabbit muscle actin (Oryctolagus cuniculus, UniProt P68135); assay: In vitro actin polymerization assay; assay type: biochemical; conditions: 5 µM, 1 h, room temperature; vehicle plateau about 25,000 RFU
T2 construct: fluorescent label (chemical); purchased Abcam; host or cells: rabbit muscle
Description: With the aim to confirm the immunofluorescence results and substantiate whether compounds 3 and 4 could inhibit the actin polymerization mechanism and/or boost the F-actin depolymerization, we employed a fluorescent-labeled purified rabbit actin. LA and cytochalasin B (CB) were used as positive controls for both the polymerization inhibition and F-actin subunits dissociation, or only the polymerization inhibition, respectively. In the negative control reaction (only vehicle), actin monomers undergo a normal polymerization, as visible in Figure 5, panel A. The reaction curve rises in approximately 5 min to a value of about 25,000 RFU (plateau) which remains almost unvaried until the end of the experiment. Contrariwise, the two reference molecules, i.e., LA and CB, used at the concentration of 5 µM, braked the actin polymerization, mostly LA rather than CB, under the adopted experimental conditions, and the LA curve dropped until a value of about 8000 RFU at the reaction end.
(§1) An Actin Polymerization/Depolymerization Assay Kit, purchased from Abcam, was employed to assess the ability of compounds 3 and 4 to interfere with the actin polymerization and depolymerization processes. To perform the essays, the manufacturer’s instructions were followed with some modifications. In particular, polymerization assay was carried out incubating in a white 96-well plate the reconstituted actin with supplemented Buffer G, compounds 3 and 4 and then Buffer P was added in order to induce actin polymerization. For the Actin Depolymerization Assay, the actin polymerization was first induced, incubating supplemented Buffers P and G at room temperature for one hour. Then, compounds 3 and 4 were added at a concentration of 5 μM. Latrunculin A (LA) and Cytochalasin B (CB) were utilized as positive control at a concentration of 5 μM. For both the assays, the assemblage of the actin filaments was defined by measuring the fluorescence (Ex/Em: 365/410 nm) in kinetic mode for 1 h at room temperature in a microplate reader.

[2] = molecular target: T3, F-actin (labeled rabbit muscle actin) (Oryctolagus cuniculus, UniProt P68135); assay: In vitro F-actin depolymerization assay; assay type: biochemical; conditions: 5 µM added after 1 h polymerization, monitored 1 h; vehicle 20,000 RFU
T3 construct: fluorescent label (chemical); purchased Abcam; host or cells: rabbit muscle
Procedure: Moreover, we performed the F-actin depolymerization assay to verify whether compounds 3 and 4 could induce the actin depolymerization as well as the LA does (Figure 5, panel B). For this purpose, we started the actin polymerization for one hour under the same experimental conditions used previously. Then, we added the compounds or the reference molecules at the concentration of 5 µM and monitored the reactions for an additional hour. […] The addition of CB was not able to produce the same effect of LA. […] Contrarily, both the compounds were able to induce an important depolymerizing effect on the F-actin, most evident in the first 7 min after the exposure. Particularly, compounds 3 and 4 produced final values of approximately 14,000 and 12,000 RFU, respectively. […] This combined effect leads to a disorganization of the intracellular actin network.
as §1

| SMILES | Inhibition of hTopo I supercoiling relaxing activity (hTopo I) | IC50 (MCF-7 cells) | Actin polymerization, final fluorescence value of reaction curve [1] | F-actin depolymerization, final fluorescence value of reaction curve [2] |
| --- | --- | --- | --- | --- |
| Cc1ccc(C)c2c1c1cc(B(O)O)ccc1n2C(=O)OC(C)(C)C [Compound 3] | totally inhibited | 27.6 ± 0.71 µM | about 13,000 RFU | approximately 14,000 RFU |
| Cc1ccc(C)c2c1c1cc(O)ccc1n2C(=O)OC(C)(C)C [Compound 4] | totally inhibited | 19.8 ± 1.12 µM | around 16,000 RFU | ~12,000 RFU |

From paper PMC10051477, “5,8-Dimethyl-9H-carbazole Derivatives Blocking hTopo I Activity and Actin Dynamics” (Pharmaceuticals, 2023)
